Here are results for four molecules from ChEMBL document CHEMBL4118070, “Synthesis, antimicrobial, antiquorum-sensing and antitumor activities of new benzimidazole analogs” (Eur J Med Chem, 2017).

Converted amounts (≈) assume the structure as drawn. The source made the active and inactive calls. The rule behind the calls is not given here.

The first assay deals with Ehrlich. Kind of assay: Antitumor activity against mouse EAC allografted in Swiss mouse assessed as RBC count in blood at 0.5 mg administered 9 days (reference value: 3.69 10^6/mm3). The format is functional.
Conditions: not given
In the case of `O=C(CSCc1nc2cc([N+](=O)[O-])ccc2[nH]1)c1ccc(Cl)cc1`, the Activity came out at 4.87 ×10⁶ /mm3.
Still for that read-out and setting: then `O=C(CSCc1nc2cc([N+](=O)[O-])ccc2[nH]1)c1ccc(Br)cc1`, with 5.14 ×10⁶ /mm3; and `O=c1[nH]cc(F)c(=O)[nH]1` [FLUOROURACIL], with 5.21 ×10⁶ /mm3.

The next assay relates to Ehrlich. Put plainly: Antitumor activity against mouse EAC allografted in Swiss mouse assessed as tumor volume at 0.5 mg administered 9 days (reference value: 9.85 ml). The format is functional.
Conditions: not given
Take `O=C(CSCc1nc2cc([N+](=O)[O-])ccc2[nH]1)c1ccc(Cl)cc1`: the Activity turned out to be 2.83 mL.
Same read-out and setting: then `O=C(CSCc1nc2cc([N+](=O)[O-])ccc2[nH]1)c1ccc(Br)cc1`, with 2.41 mL; and `O=c1[nH]cc(F)c(=O)[nH]1` [FLUOROURACIL], with 1.6 mL.

A further assay has as its system Aspergillus fumigatus. Kind of assay: Antifungal activity against Aspergillus fumigatus 293 after 48 hrs by two-fold serial dilution method. The assay is classed as functional. To be noted: Af293, 48 h.
The MIC is the lowest concentration that inhibits growth of the organism. A high value points to a less susceptible organism. The molecule `NC(=S)NNC(=O)CSCc1nc2cc([N+](=O)[O-])ccc2[nH]1` had an MIC of 1840 µM (≈ 625 µg/mL). This lies in the millimolar range.
On the same count and under the same terms, the figure for `O=C(CSCc1nc2cc([N+](=O)[O-])ccc2[nH]1)c1ccc(Cl)cc1` is 3450 µM (≈ 1250 µg/mL).
Same read-out and setting: then `O=C(CSCc1nc2cc([N+](=O)[O-])ccc2[nH]1)c1ccc(Br)cc1`, with 385 µM (≈ 156 µg/mL).

For another assay, the system named is Ehrlich. Kind of assay: Antitumor activity against mouse EAC allografted in Swiss mouse assessed as decrease in viable tumor cell count at 0.5 mg administered 9 days by trypan blue staining method. The format is functional.
Conditions: not given
`O=C(CSCc1nc2cc([N+](=O)[O-])ccc2[nH]1)c1ccc(Cl)cc1`: the result was Active.
Same read-out and setting: the entry for `O=C(CSCc1nc2cc([N+](=O)[O-])ccc2[nH]1)c1ccc(Br)cc1` is “Active”.

The subject of another assay is Ehrlich. Put plainly: Antitumor activity against mouse EAC allografted in Swiss mouse assessed as hemoglobin count in blood at 0.5 mg administered 9 days (reference value: 8.73 g/dl). The assay is classed as functional.
Conditions: not given
`O=C(CSCc1nc2cc([N+](=O)[O-])ccc2[nH]1)c1ccc(Cl)cc1`: the Activity worked out at 12.32 g/dL.
Same read-out and setting: the figure for `O=C(CSCc1nc2cc([N+](=O)[O-])ccc2[nH]1)c1ccc(Br)cc1` is 12.92 g/dL; for `O=c1[nH]cc(F)c(=O)[nH]1` [FLUOROURACIL] it is 12.96 g/dL.

Another assay deals with Candida albicans. Put plainly: Antifungal activity against Candida albicans after 48 hrs by two-fold serial dilution method. The format is functional.
Conditions: not given
Turning to `NC(=S)NNC(=O)CSCc1nc2cc([N+](=O)[O-])ccc2[nH]1`, 459 µM (≈ 156 µg/mL) was the least that counted as inhibitory (MIC).
Take `O=C(CSCc1nc2cc([N+](=O)[O-])ccc2[nH]1)c1ccc(Cl)cc1`: the MIC was 864 µM (≈ 312 µg/mL).
On the same count and under the same terms, the figure for `O=C(CSCc1nc2cc([N+](=O)[O-])ccc2[nH]1)c1ccc(Br)cc1` is 385 µM (≈ 156 µg/mL).

The next assay concerns Chromobacterium violaceum. Kind of assay: Inhibition of quorum sensing system in Chromobacterium violaceum ATCC 12472 assessed as diameter of violacein pigment inhibition at 5 mg/ml after 48 hrs.
Conditions: not given
On to `NC(=S)NNC(=O)CSCc1nc2cc([N+](=O)[O-])ccc2[nH]1`, for which the Activity was 11 mm.
Take `O=C(CSCc1nc2cc([N+](=O)[O-])ccc2[nH]1)c1ccc(Cl)cc1`: the Activity was < 2 mm.
On the same count and under the same terms, then `O=C(CSCc1nc2cc([N+](=O)[O-])ccc2[nH]1)c1ccc(Br)cc1`, with < 2 mm.

Another assay has as its system Escherichia coli. Kind of assay: Antibacterial activity against Escherichia coli ATCC 12435 after 24 hrs by two-fold serial dilution method. To be noted: ATCC 12435, 24 h. The assay is classed as functional.
With `NC(=S)NNC(=O)CSCc1nc2cc([N+](=O)[O-])ccc2[nH]1`, the MIC is > 2500 µg/mL.
Take `O=C(CSCc1nc2cc([N+](=O)[O-])ccc2[nH]1)c1ccc(Cl)cc1`: the MIC was > 2500 µg/mL.
Same read-out and setting: the figure for `O=C(CSCc1nc2cc([N+](=O)[O-])ccc2[nH]1)c1ccc(Br)cc1` is > 2500 µg/mL.

A further assay relates to Bacillus cereus. Kind of assay: Antibacterial activity against Bacillus cereus UW 85 after 24 hrs by two-fold serial dilution method. The assay is classed as functional. To be noted: UW 85, 24 h.
`NC(=S)NNC(=O)CSCc1nc2cc([N+](=O)[O-])ccc2[nH]1` registered an MIC of 3670 µM (≈ 1250 µg/mL).
`O=C(CSCc1nc2cc([N+](=O)[O-])ccc2[nH]1)c1ccc(Cl)cc1` returned an MIC of 6910 µM (≈ 2500 µg/mL). Compared with the last molecule, the MIC is about 1.9-fold higher.
The same measure, in the same setting: then `O=C(CSCc1nc2cc([N+](=O)[O-])ccc2[nH]1)c1ccc(Br)cc1`, with 769 µM (≈ 312 µg/mL).

The subject of the next assay is Staphylococcus aureus. Put plainly: Antibacterial activity against Staphylococcus aureus ATCC 29213 after 24 hrs by two-fold serial dilution method. Particulars: ATCC 29213, 24 h. The assay is classed as functional.
Consider `NC(=S)NNC(=O)CSCc1nc2cc([N+](=O)[O-])ccc2[nH]1`, for which the MIC worked out at 918 µM (≈ 313 µg/mL).
In turn, `O=C(CSCc1nc2cc([N+](=O)[O-])ccc2[nH]1)c1ccc(Cl)cc1` came in with an MIC of 864 µM (≈ 312 µg/mL). This MIC and that of the molecule before are within 1.5-fold of each other.
`O=C(CSCc1nc2cc([N+](=O)[O-])ccc2[nH]1)c1ccc(Br)cc1` displayed an MIC of 192 µM (≈ 78.1 µg/mL).

Target in the next assay: not listed separately
Kind of assay: Displacement of methyl green from DNA (unknown origin) incubated in dark for 24 hrs by colorimetric method.
Conditions: not given
Broadly, the IC50 is the point on the concentration scale where inhibition reaches its midpoint. In the case of `NC(=S)NNC(=O)CSCc1nc2cc([N+](=O)[O-])ccc2[nH]1`, the IC50 came to 66.2 µM.
`O=C(CSCc1nc2cc([N+](=O)[O-])ccc2[nH]1)c1ccc(Cl)cc1` returned an IC50 of 62.8 µM.
As to `O=C(CSCc1nc2cc([N+](=O)[O-])ccc2[nH]1)c1ccc(Br)cc1`, the IC50 came out at 34.6 µM.

Another assay has as its system HepG2. Put plainly: Cytotoxicity against human HepG2 cells assessed as decrease in cell viability after 48 hrs by MTT assay. To be noted: HepG2, 48 h. The assay is classed as functional, cell-based.
For `NC(=S)NNC(=O)CSCc1nc2cc([N+](=O)[O-])ccc2[nH]1`, the IC50 was found to be 7.05 µM.
Same read-out and setting: then `O=C(CSCc1nc2cc([N+](=O)[O-])ccc2[nH]1)c1ccc(Cl)cc1`, with 2.65 µM.
Same read-out and setting: then `O=C(CSCc1nc2cc([N+](=O)[O-])ccc2[nH]1)c1ccc(Br)cc1`, with 2.01 µM.
The same measure, in the same setting: the figure for `O=c1[nH]cc(F)c(=O)[nH]1` [FLUOROURACIL] is 5.3 µM.

A further assay deals with Ehrlich. Kind of assay: Antitumor activity against mouse EAC allografted in Swiss mouse assessed as increase in mouse life span at 0.5 mg administered 9 days relative to control. The format is functional.
Conditions: not given
As a reminder, the ILS is the gain in survival time of treated over control animals, in per cent. For `O=C(CSCc1nc2cc([N+](=O)[O-])ccc2[nH]1)c1ccc(Cl)cc1`, the ILS is recorded as 170.34%.
Consider `O=C(CSCc1nc2cc([N+](=O)[O-])ccc2[nH]1)c1ccc(Br)cc1`, for which the ILS turned out to be 212.42%.
As to `O=c1[nH]cc(F)c(=O)[nH]1` [FLUOROURACIL], the ILS turned out to be 237.93%.

For a further assay, the system named is MCF7. Kind of assay: Cytotoxicity against human MCF7 cells assessed as decrease in cell viability after 48 hrs by MTT assay. To be noted: MCF7, 48 h. The format is functional, cell-based.
For `NC(=S)NNC(=O)CSCc1nc2cc([N+](=O)[O-])ccc2[nH]1`, the IC50 worked out at 7.53 µM.
Same read-out and setting: then `O=C(CSCc1nc2cc([N+](=O)[O-])ccc2[nH]1)c1ccc(Cl)cc1`, with 2.8 µM; and `O=C(CSCc1nc2cc([N+](=O)[O-])ccc2[nH]1)c1ccc(Br)cc1`, with 1.55 µM.
Regarding `O=c1[nH]cc(F)c(=O)[nH]1` [FLUOROURACIL], the IC50 stood at 4.3 µM.

The test system of another assay is HCT-116. Put plainly: Cytotoxicity against human HCT116 cells assessed as decrease in cell viability after 48 hrs by MTT assay. The assay is classed as functional, cell-based. Particulars: HCT-116, 48 h. Background: Tetrazolium assays rely on reduction of a dye to a coloured formazan, in cell work by metabolically active cells.
On to `NC(=S)NNC(=O)CSCc1nc2cc([N+](=O)[O-])ccc2[nH]1`, for which the IC50 stood at 4.71 µM.
Same read-out and setting: then `O=C(CSCc1nc2cc([N+](=O)[O-])ccc2[nH]1)c1ccc(Cl)cc1`, with 2.23 µM.
Consider `O=C(CSCc1nc2cc([N+](=O)[O-])ccc2[nH]1)c1ccc(Br)cc1`, for which the IC50 came to 1.78 µM.
For `O=c1[nH]cc(F)c(=O)[nH]1` [FLUOROURACIL], the IC50 came to 4 µM.

A further assay relates to WI-38. Kind of assay: Cytotoxicity against human W138 cells assessed as decrease in cell viability after 48 hrs by MTT assay. The format is cell-based. To be noted: WI-38, 48 h.
Turning to `O=C(CSCc1nc2cc([N+](=O)[O-])ccc2[nH]1)c1ccc(Cl)cc1`, the concentration for half-maximal inhibition (IC50) was found to be 33.8 µM.
Still for that read-out and setting: then `O=C(CSCc1nc2cc([N+](=O)[O-])ccc2[nH]1)c1ccc(Br)cc1`, with 31.5 µM; and `O=c1[nH]cc(F)c(=O)[nH]1` [FLUOROURACIL], with 5.73 µM.

In the next assay the test system is Ehrlich. Put plainly: Antitumor activity against mouse EAC allografted in Swiss mouse assessed as WBC count in blood at 0.5 mg administered 9 days (reference value: 23.96 10^3/mm3). The assay is classed as functional.
Conditions: not given
For the molecule `O=C(CSCc1nc2cc([N+](=O)[O-])ccc2[nH]1)c1ccc(Cl)cc1`, the Activity amounted to 9.1 ×10³ /mm3.
For the molecule `O=C(CSCc1nc2cc([N+](=O)[O-])ccc2[nH]1)c1ccc(Br)cc1`, the Activity amounted to 7.41 ×10³ /mm3.
The same measure, in the same setting: the figure for `O=c1[nH]cc(F)c(=O)[nH]1` [FLUOROURACIL] is 8.86 ×10³ /mm3.

A further assay concerns Ehrlich. Kind of assay: Antitumor activity against mouse EAC allografted in Swiss mouse assessed as mean mouse survival time at 0.5 mg administered 9 days (reference value: 14.5 days). The format is functional.
Conditions: not given
For the molecule `O=C(CSCc1nc2cc([N+](=O)[O-])ccc2[nH]1)c1ccc(Cl)cc1`, the MST was determined as 39.2 days.
As for `O=C(CSCc1nc2cc([N+](=O)[O-])ccc2[nH]1)c1ccc(Br)cc1`, the MST was determined as 45.3 days.
Still for that read-out and setting: then `O=c1[nH]cc(F)c(=O)[nH]1` [FLUOROURACIL], with 49 days.
